Results published in patent publication US11834435B2, “SSTR4 agonist salts” (Eli Lilly and Company, priority 2021, dated 2023).

What was measured:
hSSTR4 [1] = molecular target: T1, hSSTR4 (Homo sapiens (Human), UniProt P31391); assay: cAMP assay (inhibition of forskolin-stimulated cAMP) in hSSTR4 expressing H4 cells; assay type: cell-based; details: after being dissolved to free base forms
Procedure: The activation of the SSTR4 receptor (G coupled) causes an inhibition of intracellular cAMP after stimulation with Forskolin, which can be quantifiable by use of a suitable assay Kit and an adequate plate reader. This technique is used to characterize pharmacological effects of the SSTR4 receptor agonists by use of hSSTR4 expressing H4 cells. The compound is dissolved and diluted in DMSO. The final test solution contains 1% DMSO. The cAMP standard (Lance™ cAMP 384 Kit; PerkinElmer, Cat #AD0264) is prepared in assay buffer (HBSS with 0.1% BSA, 5 mM HEPES, […], pH 7.4) containing 1% DMSO and the cAMP standard curve is included at least on one plate. Cells are centrifuged and suspended in assay buffer (incl. 1:100 diluted Alexa Fluor® antibody). For the assay 5 μL of a cell suspension (approximately 5000 cells/well)-incl. Alexa Fluor® antibody (diluted 1:100) are added into a 384 well MTP microtiter plate excepting one row or column (depending on the plate layout), which is reserved for the standard curve. Then 2 μL of compound sample is added as concentration response curve (e.g., le-5 M to 6e-10 M), usually in triplicates. Each assay contains incubations with vehicle controls instead of compound as controls for non-inhibited cAMP generation (100% CTL; ‘high values’) and incubations with 1 μM Somatostatin as controls for full inhibition and background (0% CTL; ‘low values’). After approximately 10-15 min incubation time 3 μL Forskolin (dissolved in DMSO, final conc. 15 μM) is added. Then the plates are shaken briefly and incubated for 60 min at RT. After 60 min 10 μL of the detection mix is added into all wells followed by an additional incubation period of 1 h. The plates are read in a suitable plate reader. The analysis of the data is based on the “ratio” of the time-resolved fluorescence measurements of donor and acceptor fluorophore (Ex: 320 nm; Em1: 665 nm; Em2: 615 nm; ratio 665/615). From this ratio, cAMP concentrations are calculated from standard curve and the EC50 is estimated by least square curve fit program. […]

hSSTR4 [2] = molecular target: T1, hSSTR4; assay: Radioligand competition binding, membrane homogenate; details: after being dissolved to free base forms
Procedure: In competition experiments, the test compound, which is not labeled, competes with the binding site of a labeled ligand. The displacement of the labeled ligand by the test compound leads to a decreased signal. For the binding experiments 200 μL of membrane homogenate from one of the following protein amounts is used: hSSTR1 (40 μg/well); hSSTR2 (25 μg/well); hSSTR3 (1.5 μg/well); hSSTR4 (0.5 μg/well); hSSTR5 (25 μg/well). The homogenate is incubated with 0.05 nM of radioligand ([3-125I-Tyr]-Somatostatin-(1-14)) in addition to increasing concentrations of a test compound or vehicle (100% binding) in a total volume of 250 μL using a Hepes buffer (10 mM, EDTA 1 mM, MgCl2 5 mM, pH 7.6, BSA 0.5%, Bacitracin 0.003%, DMSO 1%) for 180 min at RT. The incubation is terminated by filtration with ice cold NaCl 0.9% through polyethyleneimine treated (0.3%) grade GF/B glass fiber filters using a cell harvester. The protein-bound radioactivity is measured in a suitable reader. The non-specific binding is defined as radioactivity bound in the presence of 1 μM Somatostatin-14 during the incubation period. The analysis of the concentration-binding curves is performed by computer-assisted nonlinear least square curve fitting method using the model of one receptor binding site.

T1 sequence (P31391 whole entry): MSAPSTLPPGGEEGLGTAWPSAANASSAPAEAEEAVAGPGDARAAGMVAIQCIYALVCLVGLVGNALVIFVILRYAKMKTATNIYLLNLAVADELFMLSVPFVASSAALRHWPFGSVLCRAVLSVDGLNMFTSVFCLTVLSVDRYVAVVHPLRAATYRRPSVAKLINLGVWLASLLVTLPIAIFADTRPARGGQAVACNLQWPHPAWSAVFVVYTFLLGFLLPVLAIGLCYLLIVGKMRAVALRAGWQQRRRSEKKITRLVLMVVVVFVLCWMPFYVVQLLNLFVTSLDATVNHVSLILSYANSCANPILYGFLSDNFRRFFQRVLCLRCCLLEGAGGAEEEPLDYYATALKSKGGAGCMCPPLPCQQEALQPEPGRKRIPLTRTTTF

| Compound | SSTR4 agonism (in words) (hSSTR4 [1]) | Selectivity of binding to SSTR4 over SSTR1, SSTR2, SSTR3 and SSTR5 (in words) (hSSTR4 [2]) |
| --- | --- | --- |
| Cc1cccnc1OCC(C)(C)NC(=O)[C@H]1[C@@H]2CNC[C@@H]21.O=C(O)C(O)C(O)C(=O)O [Example 1, (1S,5R)-(1α,5α,6α)-N-[1,1-dimethyl-2-[(3-methyl-2-pyridyl)oxy]ethyl]-3-azabicyclo[3.1.0]hexane-6-carboxamide L-tartrate sesquihydrate] | agonists of SSTR4 | selectively bind to SSTR4 |
| Cc1cccnc1OCC(C)(C)NC(=O)[C@H]1[C@@H]2CNC[C@@H]21.O=C(O)CC(O)(CC(=O)O)C(=O)O [Example 2, (1S,5R)-(1α,5α,6α)-N-[1,1-dimethyl-2-[(3-methyl-2-pyridyl)oxy]ethyl]-3-azabicyclo[3.1.0]hexane-6-carboxamide citrate] | agonists of SSTR4 | selectively bind to SSTR4 |
| Cc1cccnc1OCC(C)(C)NC(=O)[C@H]1[C@@H]2CNC[C@@H]21.O=C(O)C[C@H](O)C(=O)O [Example 3, (1S,5R)-(1α,5α,6α)-N-[1,1-dimethyl-2-[(3-methyl-2-pyridyl)oxy]ethyl]-3-azabicyclo[3.1.0]hexane-6-carboxamide L-malate] | agonists of SSTR4 | selectively bind to SSTR4 |
